Results: US9062124B2, “GIP-based mixed agonists for treatment of metabolic disorders and obesity” (priority 2008, dated 2015)
Like-named read-outs stand apart in the source and are kept apart here. Where a SMILES comes first, the peptide text is derived from it. Bridges are numbered along the chain shown (N, C = ends). Where no end group is shown, it is not given here. [ ]: non-standard residue; d: D form. The star is where a group is joined. PEG 40 kDa = PEG (40 kDa) covalently attached to Cys; Myristoyl = CCCCCCCCCCCCCC(=O)*; Aib = CC(C)(N)C(=O)O

Experiments:
Format in all cases: cell-based
[1] = biological target: T1, GLP-1 receptor (Homo sapiens, UniProt P43220); assay: cAMP synthesis functional assay (firefly luciferase reporter in HEK293 cells), GLP-1 receptor
T1 construct: expressed in transfected cells; host or cells: HEK293
T1 sequence (P43220 24-463, species assumed): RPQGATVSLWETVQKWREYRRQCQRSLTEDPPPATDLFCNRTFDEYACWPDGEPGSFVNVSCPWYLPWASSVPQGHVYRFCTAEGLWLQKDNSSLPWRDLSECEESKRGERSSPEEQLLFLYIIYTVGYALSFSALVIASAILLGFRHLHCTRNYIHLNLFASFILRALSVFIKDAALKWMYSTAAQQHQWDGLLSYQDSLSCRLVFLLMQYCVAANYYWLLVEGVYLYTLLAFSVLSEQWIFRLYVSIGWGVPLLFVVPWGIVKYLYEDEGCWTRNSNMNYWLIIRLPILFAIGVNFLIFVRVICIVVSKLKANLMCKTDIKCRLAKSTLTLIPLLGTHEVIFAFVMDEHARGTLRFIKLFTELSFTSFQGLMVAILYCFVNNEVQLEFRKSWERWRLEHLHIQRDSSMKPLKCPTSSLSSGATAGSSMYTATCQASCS

[2] = biological target: T2, GIP receptor (Homo sapiens, UniProt P48546); assay: cAMP synthesis functional assay (firefly luciferase reporter in HEK293 cells), GIP receptor
T2 construct: expressed in transfected cells; host or cells: HEK293
T2 sequence (P48546 22-466): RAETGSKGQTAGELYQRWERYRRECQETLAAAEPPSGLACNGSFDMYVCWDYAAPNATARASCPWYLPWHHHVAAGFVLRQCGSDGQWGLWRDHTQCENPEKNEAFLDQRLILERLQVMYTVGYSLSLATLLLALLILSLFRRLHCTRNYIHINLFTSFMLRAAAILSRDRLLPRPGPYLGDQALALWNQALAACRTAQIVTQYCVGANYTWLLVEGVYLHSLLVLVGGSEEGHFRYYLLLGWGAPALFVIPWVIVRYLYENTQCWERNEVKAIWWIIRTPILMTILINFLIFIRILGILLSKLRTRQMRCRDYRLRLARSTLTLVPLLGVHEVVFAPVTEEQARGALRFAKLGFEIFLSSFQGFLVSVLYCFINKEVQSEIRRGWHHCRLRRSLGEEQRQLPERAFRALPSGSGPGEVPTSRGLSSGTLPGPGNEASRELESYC

[3] = biological target: T3, glucagon receptor (Homo sapiens, UniProt P47871); assay: cAMP synthesis functional assay (firefly luciferase reporter in HEK293 cells), glucagon receptor
T3 construct: expressed in transfected cells; host or cells: HEK293
T3 sequence (P47871 26-477): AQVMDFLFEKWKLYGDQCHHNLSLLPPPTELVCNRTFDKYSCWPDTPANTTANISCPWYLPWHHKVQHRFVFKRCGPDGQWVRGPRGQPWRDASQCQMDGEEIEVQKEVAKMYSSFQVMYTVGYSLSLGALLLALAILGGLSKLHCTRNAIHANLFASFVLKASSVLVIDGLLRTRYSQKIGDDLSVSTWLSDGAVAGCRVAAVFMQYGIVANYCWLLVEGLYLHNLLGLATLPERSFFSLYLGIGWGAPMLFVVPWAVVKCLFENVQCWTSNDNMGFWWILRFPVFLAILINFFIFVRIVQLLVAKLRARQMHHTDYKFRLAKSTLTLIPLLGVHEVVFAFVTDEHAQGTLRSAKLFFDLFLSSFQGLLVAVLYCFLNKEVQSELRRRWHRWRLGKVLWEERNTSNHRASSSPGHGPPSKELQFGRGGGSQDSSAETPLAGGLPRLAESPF

[4] = relative to the standard (Std.) EC50 of the same run
[5] = GIP Receptor EC50, cAMP luciferase reporter assay as in Example 16
[6] = Table 1, relative to the native hormone of the indicated receptor
[7] = GLP-1 Receptor EC50, cAMP luciferase reporter assay as in Example 16

## CC[C@H](C)[C@H](NC(=O)[C@H](CO)NC(=O)[C@H](Cc1ccc(O)cc1)NC(=O)[C@H](CC(=O)O)NC(=O)[C@H](CO)NC(=O)[C@@H](NC(=O)[C@H](Cc1ccccc1)NC(=O)[C@@H](NC(=O)CNC(=O)[C@H](CCC(=O)O)NC(=O)C(C)(C)NC(=O)[C@@H](N)Cc1ccc(O)cc1)[C@@H](C)O)[C@@H](C)O)C(=O)N[C@@H](Cc1ccc(O)cc1)C(=O)N[C@@H](CC(C)C)C(=O)N[C@@H](CC(=O)O)C(=O)N[C@@H](CCCCN)C(=O)N[C@@H](CCC(N)=O)C(=O)N[C@@H](C)C(=O)N[C@@H](C)C(=O)NC(C)(C)C(=O)N[C@@H](CCC(=O)O)C(=O)N[C@@H](Cc1ccccc1)C(=O)N[C@H](C(=O)N[C@@H](CC(N)=O)C(=O)N[C@@H](Cc1c[nH]c2ccccc12)C(=O)N[C@@H](CC(C)C)C(=O)N[C@@H](CC(C)C)C(=O)N[C@@H](C)C(=O)NCC(=O)NCC(=O)N1CCC[C@H]1C(=O)N[C@@H](CO)C(=O)N[C@@H](CO)C(=O)NCC(=O)N[C@@H](C)C(=O)N1CCC[C@H]1C(=O)N1CCC[C@H]1C(=O)N1CCC[C@H]1C(=O)N[C@@H](CO)C(=O)N[C@@H](CCCCN)C(=O)N[C@@H](CS)C(N)=O)C(C)C [mt-340]
[1]; [4]
  GLP-1 Receptor relative activity: 100.00%
[2]; [5]
  EC50: 0.0028 nM
[2]; [4]
  GIP Receptor relative activity: 328.57%
[3]; [4]
  Glucagon Receptor relative activity: 0.24%

## CC[C@H](C)[C@H](NC(=O)[C@H](CO)NC(=O)[C@H](Cc1ccc(O)cc1)NC(=O)[C@H](CC(=O)O)NC(=O)[C@H](CO)NC(=O)[C@@H](NC(=O)[C@H](Cc1ccccc1)NC(=O)[C@@H](NC(=O)CNC(=O)[C@H](CCC(N)=O)NC(=O)[C@H](CO)NC(=O)[C@@H](N)Cc1ccc(O)cc1)[C@@H](C)O)[C@@H](C)O)C(=O)N[C@@H](Cc1ccc(O)cc1)C(=O)N[C@@H](CC(C)C)C(=O)N[C@@H](CC(=O)O)C(=O)N[C@@H](CCC(=O)O)C(=O)N[C@H]1CCC(=O)NCCCC[C@@H](C(=O)N[C@@H](CCC(=O)O)C(=O)N[C@@H](Cc2ccccc2)C(=O)N[C@H](C(=O)N[C@@H](CC(N)=O)C(=O)N[C@@H](Cc2c[nH]c3ccccc23)C(=O)N[C@@H](CC(C)C)C(=O)N[C@@H](CC(C)C)C(=O)N[C@@H](C)C(=O)NCC(=O)NCC(=O)N2CCC[C@H]2C(=O)N[C@@H](CO)C(=O)N[C@@H](CO)C(=O)NCC(=O)N[C@@H](C)C(=O)N2CCC[C@H]2C(=O)N2CCC[C@H]2C(=O)N2CCC[C@H]2C(=O)N[C@@H](CO)C(N)=O)C(C)C)NC(=O)[C@H](C)NC(=O)[C@H](C)NC1=O [mt-167] (H-YSQGTFTSDYSIYLDEEAAKEFVNWLLAGGPSSGAPPPS-NH2; lactam 17-20; N-terminus assumed)
[1]; [6]
  GLP-1 Receptor relative activity: 7.94%
[2]; [6]
  GIP Receptor relative activity: 5.01%
[3]; [6]
  Glucagon Receptor relative activity: 34.53%

## CC[C@H](C)[C@H](NC(=O)[C@H](CO)NC(=O)[C@H](CCCCN)NC(=O)[C@H](CC(=O)O)NC(=O)[C@H](CO)NC(=O)[C@@H](NC(=O)[C@H](Cc1ccccc1)NC(=O)[C@@H](NC(=O)CNC(=O)[C@H](CCC(=O)O)NC(=O)C(C)(C)NC(=O)[C@@H](N)Cc1ccc(O)cc1)[C@@H](C)O)[C@@H](C)O)C(=O)N[C@@H](Cc1ccc(O)cc1)C(=O)N[C@@H](CC(C)C)C(=O)N[C@@H](CC(=O)O)C(=O)N[C@@H](CCCCN)C(=O)N[C@@H](CCC(N)=O)C(=O)N[C@@H](C)C(=O)N[C@@H](C)C(=O)NC(C)(C)C(=O)N[C@@H](CCC(=O)O)C(=O)N[C@@H](Cc1ccccc1)C(=O)N[C@H](C(=O)N[C@@H](CS)C(=O)N[C@@H](Cc1c[nH]c2ccccc12)C(=O)N[C@@H](CC(C)C)C(=O)N[C@@H](CC(C)C)C(=O)N[C@@H](C)C(=O)NCC(=O)NCC(=O)N1CCC[C@H]1C(=O)N[C@@H](CO)C(=O)N[C@@H](CO)C(=O)NCC(=O)N[C@@H](C)C(=O)N1CCC[C@H]1C(=O)N1CCC[C@H]1C(=O)N1CCC[C@H]1C(=O)N[C@@H](CO)C(N)=O)C(C)C [mt-338] (H-Y[Aib]EGTFTSDKSIYLDKQAA[Aib]EFVCWLLAGGPSSGAPPPS-NH2; N-terminus assumed)
[1]; [7]
  EC50: 0.226 nM
[1]; [4]
  GLP-1 Receptor relative activity: 2.70%
[2]; [5]
  EC50: 0.0234 nM
[2]; [4]
  GIP Receptor relative activity: 39.32%
[3]; [4]
  Glucagon Receptor relative activity: 0.01%

## CCCCCCCCCCCCCC(=O)NCCCC[C@H](NC(=O)[C@H](CC(=O)O)NC(=O)[C@H](CO)NC(=O)[C@@H](NC(=O)[C@H](Cc1ccccc1)NC(=O)[C@@H](NC(=O)CNC(=O)[C@H](CCC(=O)O)NC(=O)C(C)(C)NC(=O)[C@@H](N)Cc1ccc(O)cc1)[C@@H](C)O)[C@@H](C)O)C(=O)N[C@@H](CO)C(=O)N[C@H](C(=O)N[C@@H](Cc1ccc(O)cc1)C(=O)N[C@@H](CC(C)C)C(=O)N[C@@H](CC(=O)O)C(=O)N[C@@H](CCCCN)C(=O)N[C@@H](CCC(N)=O)C(=O)N[C@@H](C)C(=O)N[C@@H](C)C(=O)NC(C)(C)C(=O)N[C@@H](CCC(=O)O)C(=O)N[C@@H](Cc1ccccc1)C(=O)N[C@H](C(=O)N[C@@H](CS)C(=O)N[C@@H](Cc1c[nH]c2ccccc12)C(=O)N[C@@H](CC(C)C)C(=O)N[C@@H](CC(C)C)C(=O)N[C@@H](C)C(=O)NCC(=O)NCC(=O)N1CCC[C@H]1C(=O)N[C@@H](CO)C(=O)N[C@@H](CO)C(=O)NCC(=O)N[C@@H](C)C(=O)N1CCC[C@H]1C(=O)N1CCC[C@H]1C(=O)N1CCC[C@H]1C(=O)N[C@@H](CO)C(N)=O)C(C)C)[C@@H](C)CC [mt-337] (H-Y[Aib]EGTFTSDK(Myristoyl)SIYLDKQAA[Aib]EFVCWLLAGGPSSGAPPPS-NH2; N-terminus assumed)
[1]; [7]
  EC50: 0.0082 nM
[1]; [4]
  GLP-1 Receptor relative activity: 74.39%
[2]; [5]
  EC50: 0.008 nM
[2]; [4]
  GIP Receptor relative activity: 115.00%
[3]; [4]
  Glucagon Receptor relative activity: 0.02%

## CC[C@H](C)[C@H](NC(=O)[C@H](CO)NC(=O)[C@H](Cc1ccc(O)cc1)NC(=O)[C@H](CC(=O)O)NC(=O)[C@H](CO)NC(=O)[C@@H](NC(=O)[C@H](Cc1ccccc1)NC(=O)[C@@H](NC(=O)CNC(=O)[C@H](CCC(N)=O)NC(=O)[C@H](CO)NC(=O)[C@@H](N)Cc1ccc(O)cc1)[C@@H](C)O)[C@@H](C)O)C(=O)N[C@@H](Cc1ccc(O)cc1)C(=O)N[C@@H](CC(C)C)C(=O)N[C@@H](CC(=O)O)C(=O)N[C@@H](CCC(=O)O)C(=O)N[C@@H](CCC(N)=O)C(=O)N[C@@H](C)C(=O)N[C@@H](C)C(=O)N[C@H]1CCCCNC(=O)CC[C@@H](C(=O)N[C@@H](Cc2c[nH]c3ccccc23)C(=O)N[C@@H](CC(C)C)C(=O)N[C@@H](CC(C)C)C(=O)N[C@@H](C)C(=O)NCC(=O)NCC(=O)N2CCC[C@H]2C(=O)N[C@@H](CO)C(=O)N[C@@H](CO)C(=O)NCC(=O)N[C@@H](C)C(=O)N2CCC[C@H]2C(=O)N2CCC[C@H]2C(=O)N2CCC[C@H]2C(=O)N[C@@H](CO)C(N)=O)NC(=O)[C@H](C(C)C)NC(=O)[C@H](Cc2ccccc2)NC(=O)[C@H](CCC(=O)O)NC1=O [mt-156] (H-YSQGTFTSDYSIYLDEQAAKEFVEWLLAGGPSSGAPPPS-NH2; lactam 20-24; N-terminus assumed)
[1]; [6]
  GLP-1 Receptor relative activity: 12.20%
[2]; [6]
  GIP Receptor relative activity: 4.41%
[3]; [6]
  Glucagon Receptor relative activity: 6.10%

## CC[C@H](C)[C@H](NC(=O)[C@H](CO)NC(=O)[C@H](Cc1ccc(O)cc1)NC(=O)[C@H](CC(=O)O)NC(=O)[C@H](CO)NC(=O)[C@@H](NC(=O)[C@H](Cc1ccccc1)NC(=O)[C@@H](NC(=O)CNC(=O)[C@H](CCC(N)=O)NC(=O)C(C)(C)NC(=O)[C@@H](N)Cc1ccc(O)cc1)[C@@H](C)O)[C@@H](C)O)C(=O)N[C@@H](Cc1ccc(O)cc1)C(=O)N[C@@H](CC(C)C)C(=O)N[C@@H](CC(=O)O)C(=O)NC(C)(C)C(=O)N[C@@H](CCC(N)=O)C(=O)N[C@@H](C)C(=O)N[C@@H](C)C(=O)N[C@@H](CCCCN)C(=O)N[C@@H](CCC(=O)O)C(=O)N[C@@H](Cc1ccccc1)C(=O)N[C@H](C(=O)N[C@@H](CC(N)=O)C(=O)N[C@@H](Cc1c[nH]c2ccccc12)C(=O)N[C@@H](CC(C)C)C(=O)N[C@@H](CC(C)C)C(=O)N[C@@H](C)C(=O)NCC(=O)NCC(=O)N1CCC[C@H]1C(=O)N[C@@H](CO)C(=O)N[C@@H](CO)C(=O)NCC(=O)N[C@@H](C)C(=O)N1CCC[C@H]1C(=O)N1CCC[C@H]1C(=O)N1CCC[C@H]1C(=O)N[C@@H](CO)C(=O)N[C@@H](CS)C(N)=O)C(C)C [mt-241] (H-Y[Aib]QGTFTSDYSIYLD[Aib]QAAKEFVNWLLAGGPSSGAPPPSC-NH2; N-terminus assumed)
[1]; GLP-1 Receptor EC50, nM, Table 2
  EC50: 0.023 nM
[1]; Table 2
  GLP-1 Receptor relative activity: 130.43%
[2]; Table 2
  GIP Receptor relative activity: 4.37%
[3]; Table 2
  Glucagon Receptor relative activity: 3.73%

## Y[Aib]EGTFISDYSIAMDKIHQQDFVNWLLAQKGKKNWLKHNITQ-NH2 [mt-100]
[1]; [6]
  GLP-1 Receptor relative activity: 0.01%
[2]; [6]
  GIP Receptor relative activity: 306.25%
[3]; [6]
  Glucagon Receptor relative activity: 0.01%

## mt-205: glucagon analog peptide, C-terminal amide (Y[Aib]EGTFTSDYSIYLDEQAAKEFVNWLLAGRPSSGAPPPSC(PEG 40 kDa)-NH2; lactam 16-20)
[1]; [6]
  GLP-1 Receptor relative activity: 14.22%
[1]; read-out: GLP-1 Receptor EC50, Table 1
  EC50: 0.204 nM
[2]; [6]
  GIP Receptor relative activity: 1.74%
[2]; read-out: GIP Receptor EC50, Table 1
  EC50: 1.66 nM
[3]; [6]
  Glucagon Receptor relative activity: 0.01%
[3]; read-out: Glucagon Receptor EC50, Table 1
  EC50: 672 nM
